# Results published in ChEMBL document CHEMBL1201862, “PubChem BioAssay data set” (2004).
#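 These data come from cells grown in 96-well plates and exposed to compound for 48 hours at five concentrations. GI50 marks 50% less growth.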 Calls of active or inactive are those of the source. Rule as the data show it: active = GI50 up to about 1.1 µM and inactive = higher.
# Key:
# Assay in all cases: growth of human tumour cells (NCI), 48 h
# [1] = test system: CAKI-1
# [2] = test system: CCRF-CEM
# [3] = test system: HL-60
# [4] = test system: OVCAR-4
# [5] = test system: HOP-92
# [6] = test system: NCI-H23
# [7] = test system: MDA-MB-231
# [8] = test system: OVCAR-3
# [9] = test system: MOLT-4
# [10] = test system: RPMI-8226
# [11] = test system: SW-620
# [12] = test system: KM12
# [13] = test system: MCF7
# [14] = test system: HCT-15
# [15] = test system: HOP-62
# [16] = test system: SNB-19
# [17] = test system: SF-268
# [18] = test system: SK-OV-3
# [19] = test system: NCI-H226
# [20] = test system: OVCAR-8
# [21] = test system: SF-295
# [22] = test system: MDA-N
# [23] = test system: HCC 2998
# [24] = test system: SK-MEL-28
# [25] = test system: UO-31
# [26] = test system: MDA-MB-435
# [27] = test system: HCT-116
# [28] = test system: NCI-H460
# [29] = test system: U-251
# [30] = test system: NCI/ADR-RES
# [31] = test system: HT-29
# [32] = test system: Hs-578T
# [33] = test system: A498
# [34] = test system: DU-145
# [35] = test system: SF-539
# [36] = test system: M14
# [37] = test system: UACC-62
# [38] = test system: LOX IMVI
# [39] = test system: IGROV-1
# [40] = test system: SK-MEL-2
# [41] = test system: BT-549
# [42] = test system: ACHN
# [43] = test system: UACC-257
# [44] = test system: TK-10
# [45] = test system: K562
# [46] = test system: SNB-75
# [47] = test system: PC-3
# [48] = test system: COLO 205
# [49] = test system: SN12C
# [50] = test system: SK-MEL-5
# [51] = test system: EKVX
# [52] = test system: RXF 393
# [53] = test system: 786-0
# [54] = test system: OVCAR-5
# [55] = test system: T47D
structure (smiles),measurement,setting,value
COc1ccc2c(c1)OC1c3ccccc3OCC21 (stereo not given),GI50,[1],> 100 µM (inactive)
same,GI50,[2],58.7 µM (inactive)
same,GI50,[3],34.6 µM (inactive)
same,GI50,[4],> 100 µM (inactive)
same,GI50,[5],61.8 µM (inactive)
same,GI50,[6],61.4 µM (inactive)
same,GI50,[7],> 100 µM (inactive)
same,GI50,[8],72.1 µM (inactive)
same,GI50,[9],27.7 µM (inactive)
same,GI50,[10],71 µM (inactive)
same,GI50,[11],96.8 µM (inactive)
same,GI50,[12],28.4 µM (inactive)
same,GI50,[13],88.1 µM (inactive)
same,GI50,[14],62.7 µM
same,GI50,[15],> 100 µM (inactive)
same,GI50,[16],93.3 µM (inactive)
same,GI50,[17],32.8 µM (inactive)
same,GI50,[18],> 100 µM (inactive)
same,GI50,[19],47.1 µM (inactive)
same,GI50,[20],> 100 µM (inactive)
same,GI50,[21],> 100 µM (inactive)
same,GI50,[22],36.6 µM (inactive)
same,GI50,[23],39.9 µM (inactive)
same,GI50,[24],> 100 µM (inactive)
same,GI50,[25],48.9 µM (inactive)
same,GI50,[26],30.7 µM (inactive)
same,GI50,[27],77.3 µM (inactive)
same,GI50,[28],61.9 µM (inactive)
same,GI50,[29],> 100 µM (inactive)
same,GI50,[30],60.3 µM (inactive)
same,GI50,[31],25.6 µM (inactive)
same,GI50,[32],> 100 µM (inactive)
same,GI50,[33],> 100 µM (inactive)
same,GI50,[34],> 100 µM (inactive)
same,GI50,[35],> 100 µM (inactive)
same,GI50,[36],93.5 µM (inactive)
same,GI50,[37],> 100 µM (inactive)
same,GI50,[38],81.3 µM (inactive)
same,GI50,[39],> 100 µM (inactive)
same,GI50,[40],> 100 µM (inactive)
same,GI50,[41],59.7 µM (inactive)
same,GI50,[42],> 100 µM (inactive)
same,GI50,[43],> 100 µM (inactive)
same,GI50,[44],> 100 µM (inactive)
same,GI50,[45],31.8 µM (inactive)
same,GI50,[46],27.4 µM (inactive)
same,GI50,[47],> 100 µM (inactive)
same,GI50,[48],> 100 µM (inactive)
same,GI50,[49],> 100 µM (inactive)
same,GI50,[50],24.7 µM (inactive)
same,GI50,[51],63.7 µM (inactive)
same,GI50,[52],77.4 µM (inactive)
same,GI50,[53],> 100 µM (inactive)
same,GI50,[54],> 100 µM (inactive)
same,GI50,[55],72.6 µM (inactive)
